Assay results: US8865756B2, “Inhibitors of HCV NS5A” (Presidio Pharmaceuticals, Inc., priority 2008, dated 2014)

What follows are molecules tested on HCV 1b_Huh-Luc/Neo-ET cell line persistently expressing a bicistronic genotype 1b replicon in Huh 7 cells (assay: HCV replicon assay (luciferase readout)). Conditions: Hepatitis C virus, Huh-7, 72 h, read-out: Inhibition of HCV genotype 1b.
Format: cell-based
Protocol: Biological activity of the compounds of the invention was determined using an HCV replicon assay. The HCV 1b_Huh-Luc/Neo-ET cell line persistently expressing a bicistronic genotype 1b replicon in Huh 7 cells was obtained from ReBLikon GMBH. This cell line was used to test compound inhibition using luciferase enzyme activity readout as a measurement of compound inhibition of replicon levels.
On Day 1 (the day after plating), each compound is added in triplicate to the cells. Plates incubated for 72 h prior to running the luciferase assay. Enzyme activity was measured using a Bright-Glo Kit (cat. number E2620) manufactured by Promega Corporation. The following equation was used to generate a percent control value for each compound. % Control=(Average Compound Value/Average Control)*100
The EC50 value was determined using GraphPad Prism and the following equation: Y=Bottom+(Top−Bottom)/(1+10^((Log IC50−X)*HillSlope))
EC50 values of compounds are determined several times in the replicon assay.
Example compounds of the disclosed invention are illustrated in Tables 1-14 attached as appendices. The tables show inhibitory activity of many of the example compounds with respect to HCV 1b. […] The tables further provide mass spectrometry results for the synthesized example compounds.
For `CC(C)(C)OC(=O)N[C@@H](C(=O)N1CCC[C@H]1C(=O)NCc1ccc(C#Cc2ccc(-c3cnc([C@@H]4CCCN4C(=O)[C@H](NC(=O)OC(C)(C)C)c4ccccc4)[nH]3)cc2)cc1)c1ccccc1` [Compound 189], the EC50 was < 1 nM. In the case of `COC(=O)N[C@H](C(=O)N1CCC[C@H]1c1ncc(-c2ccc(C#Cc3ccc(-c4cnc([C@@H]5CCCN5C(=O)[C@H](NC(=O)N5CCN(C)CC5)c5ccccc5)[nH]4)cc3)cc2)[nH]1)C(C)C` [Compound 989], the EC50 is reported as < 1 nM. `C(#Cc1ccc2nc([C@@H]3CCCN3Cc3ccccc3)[nH]c2c1)c1ccc(-c2cnc([C@@H]3CCCN3Cc3ccccc3)[nH]2)cc1` [Compound 1052] was tested, and the EC50 was > 1000 nM. With `CC(=O)N[C@@H](C(=O)N1CCC[C@H]1c1ncc(C#Cc2ccc(-c3cnc([C@@H]4CCCN4C(=O)[C@H](NC(C)=O)c4ccccc4)[nH]3)cc2)[nH]1)c1ccccc1` [Compound 109] the EC50 was < 1 nM. For `O=C(N[C@@H](C(=O)N1CCC[C@H]1c1nc(-c2ccc3cc(C#Cc4cnc([C@@H]5CCCN5C(=O)[C@H](NC(=O)C5CC5)c5ccccc5)[nH]4)ccc3c2)c[nH]1)c1ccccc1)C1CC1` [Compound 804], the EC50 was < 1 nM. `COC(=O)N[C@H](C(=O)N1CCC[C@H]1c1ncc(-c2cc(C)c(C#Cc3ccc4nc([C@@H]5CCCN5C(=O)[C@@H](NC(=O)OC)C(C)C)[nH]c4c3)c(C)c2)[nH]1)C(C)C` [Compound 1060] was tested, and the EC50 was < 1 nM. `CC(C)[C@H](NC(=O)[C@H](NC(=O)OC(C)(C)C)c1ccccc1)c1ncc(-c2ccc(C#Cc3ccc(-c4cnc([C@@H]5CCCN5C(=O)[C@H](NC(=O)OC(C)(C)C)c5ccccc5)[nH]4)cc3)cc2)[nH]1` [Compound 281] gave an EC50 of 1 to 9.9 nM. With `COC(=O)N[C@H](C(=O)N1CCC[C@H]1c1nc2ccc3cc(C#Cc4ccc(-c5cnc([C@@H]6CCCN6C(=O)[C@@H](NC(=O)OC)C6CCOCC6)[nH]5)cc4)ccc3c2[nH]1)C(C)C` [Compound 1092] the EC50 was < 1 nM. Work on `COC(=O)N[C@H](C(=O)N[C@@H](C)c1ncc(-c2ccc(C#Cc3ccc(-c4cnc([C@@H]5CCCN5C(=O)[C@H](C(C)C)N(C)C)[nH]4)cc3)cc2)[nH]1)C(C)C` [Compound 963] yielded an EC50 of 1 to 9.9 nM. For `COC(=O)N[C@H](C(=O)N1CCC[C@H]1c1ncc(-c2ccc(C#Cc3ccc(-c4cnc([C@@H]5CCCN5C(=O)[C@@H](c5ccccc5)N5CCN(C)CC5)[nH]4)cc3)cc2)[nH]1)C(C)C` [Compound 957], the EC50 was < 1 nM. `C[C@H](NC(=O)[C@@H]1CCCN1C(=O)[C@H](NC(=O)OC(C)(C)C)c1ccccc1)c1ccc(C#Cc2cnc([C@@H]3CCCN3C(=O)[C@H](NC(=O)OC(C)(C)C)c3ccccc3)[nH]2)cc1` [Compound 130] showed an EC50 of 10 to 999 nM. In the case of `COC(=O)N[C@@H](C(=O)N1CCC[C@H]1c1ncc(-c2ccc(C#Cc3ccc(-c4cnc([C@@H]5CCCN5C(=O)[C@H](NC(=O)N5CCC(O)CC5)c5ccccc5)[nH]4)cc3)cc2)[nH]1)c1ccccc1` [Compound 241], the EC50 is reported as < 1 nM. In the case of `C[C@@H](NC(=O)[C@@H]1CCCN1C(=O)[C@H](NC(=O)C1CC1)c1ccccc1)c1ccc(C#Cc2cnc([C@@H]3CCCN3C(=O)[C@H](NC(=O)C3CC3)c3ccccc3)[nH]2)cc1` [Compound 135], the EC50 is reported as > 1000 nM. `COC(=O)N[C@H](C(=O)N[C@@H](C)c1ncc(-c2ccc(C#Cc3ccc4nc([C@@H]5CCCN5C(=O)[C@@H](NC(=O)OC)C(C)C)[nH]c4c3)cc2)[nH]1)C(C)C` [Compound 869] was tested, and the EC50 was < 1 nM. With `CCC(CC)[C@H](NC(=O)OC)C(=O)N1CCC[C@H]1c1ncc(-c2ccc(C#Cc3ccc4nc([C@@H]5CCCN5C(=O)[C@@H](NC(=O)OC)C(CC)CC)[nH]c4c3)cc2)[nH]1` [Compound 1030] the EC50 was < 1 nM. For `COC(=O)N[C@H](C(=O)N1C[C@H](F)C[C@H]1c1ncc(-c2ccc(C#Cc3ccc4nc([C@@H]5CCCN5C(=O)[C@@H](NC(=O)OC)C(C)C)[nH]c4c3)cc2)[nH]1)C(C)C` [Compound 1040], the EC50 was < 1 nM. For `COC(=O)N[C@@H](C(=O)N1CCC[C@H]1c1ncc(C#Cc2ccc(-c3ccc(-c4cnc([C@@H]5CCCN5C(=O)[C@@H](c5ccccc5)N5CCOCC5)[nH]4)cc3)cc2)[nH]1)c1ccccc1` [Compound 758], the EC50 was < 1 nM.
